Patent US11548903B2, “Bicyclic thiazine and oxazine derivatives as beta-secretase inhibitors and methods of use” (AMGEN INC., priority 2016, dated 2023)
Like-named read-outs stand apart in the source and are kept apart here.

Tests used:
Recombinant CatD = Recombinant CatD (Homo sapiens (Human), UniProt P07339); test: In vitro enzymatic Cathepsin D (CatD) FRET assay; assay type: biochemical; conditions: read-out: Cat D Enzyme IC50
Experimental: In Vitro Enzymatic Cathepsin D (CatD) FRET Assay Recombinant CatD was expressed in CHO cells. The assay buffer for CatD was 0.05 M citrate pH 3.5, 10% DMSO final, 5 mM CHAPS. […] The assays was effectively started by the addition of different FRET substrates (20 nM for CatD) and the combination was incubated for one hour. The FRET assay was terminated with by addition of tris buffer, which raises the pH to neutrality, and the fluorescence was determined. The FRET substrate was a peptide with commercially available fluorophore and quencher, on opposite sides of the CatD cleavage site. The CatD substrate peptide sequence was based on sequence #1 of Table 1 from Gulnik et al., FEBS Lett. 413(2):379-384 (1997). Proteolytic cleavage of the FRET substrate released quenching of fluorescence (CatD excitation 500 nm and emission 580 nm). The in vitro CatD FRET assay data for each of the Examples is provided in Table 2, conducted by the first procedure described above. […] Thus, with this surprising selectivity profile, the compounds provided herein are believed to minimize, reduce or completely eliminate any risk of retinal atrophy and abnormal development of the eye and of the retinal pigmented epithelium as it relates to the normal function and activity of CatD.

human recombinant BACE1 = human recombinant BACE1 (Homo sapiens (Human), UniProt P56817); test: In vitro enzymatic BACE1 FRET assay; assay type: biochemical; conditions: read-out: BACE1 Enzyme IC50
Experimental: (§1) In Vitro Enzymatic BACE1 and BACE2 FRET (Fluorescence Resonance Energy Transfer) Assays […] These recombinant proteins were further purified using Ni-NTA affinity chromatography (Qiagen). […] The assay was effectively started by the addition of FRET substrate (50 nM) and the combination was incubated for one hour. The FRET assay was terminated by the addition of tris buffer, which raised the pH to neutrality, and the fluorescence was determined. The FRET substrate was a peptide with commercially available fluorophore and quencher, on opposite sides of the BACE cleavage site. The specific FRET substrate used in this assay was made by Amgen in-house. Commercially available FRET substrates, for example, the FRET substrate offered with the BACE1 FRET Assay Kit sold by ThermoFisher Scientific (Catalog Number P2985), may be used in this assay with the appropriate modifications, which are within the purview of the ability of a person with ordinary skill in the art. Proteolytic cleavage of the FRET substrate released quenching of fluorescence (excitation 488 nm and emission 590 nm).

human recombinant BACE2 = human recombinant BACE2 (Homo sapiens (Human), UniProt Q9Y5Z0); test: In vitro enzymatic BACE2 FRET assay; assay type: biochemical; conditions: read-out: BACE2 Enzyme IC50
Experimental: as §1

[1] = test system: BACE1 (Aβ40 from cells stably expressing Amyloid Precursor Protein); test: In vitro BACE1 cell-based assay (Aβ40 in conditioned medium, HTRF)
Experimental: In Vitro BACE1 Cell-Based Assay The cell-based assay measures inhibition or reduction of Aβ40 in conditioned medium of test compound treated cells expressing amyloid precursor protein. Cells stably expressing Amyloid Precursor Protein (APP) were plated at a density of 45K cells/well in 384 well plates (Corning/BioCoat 354663). The test compounds were then added to cells in 22-point dose response concentrations with the starting concentration being 62.5 μM. The compounds were diluted from stock solutions in DMSO and the final DMSO concentration of the test compounds on cells was 0.625%. The cells were cultivated overnight at 37° C. and 5% CO2 in DMEM supplemented with 10% FBS. After 24 h of incubation with the test compounds, the conditioned media was collected and the Aβ40 levels were determined using HTRF (Homogeneous Time Resolved Fluorescence). […] The HTRF to detect Aβ40 was performed in 384 well plates (Costar 3658). The antibody pair that were used to detect Aβ 40 from cell supernatants were ConfAb40 antibody (Amgen in-house) and biotinylated 6E10 (BIOLEGEND). As an alternative to ConfAb40, a commercially available antibody, Anti-beta Amyloid 1-40 antibody [BDI350] from Abcam, Cambridge, Mass. 02139-1517 (Product code: ab20068), may be used in this assay. […] The conditioned media was incubated with above antibodies and Streptavidin Allophycocyanin Conjugate for 30-60 minutes at 23° C. The final readout was performed on Envision from PerkinElmer.

[2] = Aβ40, 24 h incubation, read-out: BACE1 Cell IC50

Chain of human recombinant BACE1 (P56817 46-501): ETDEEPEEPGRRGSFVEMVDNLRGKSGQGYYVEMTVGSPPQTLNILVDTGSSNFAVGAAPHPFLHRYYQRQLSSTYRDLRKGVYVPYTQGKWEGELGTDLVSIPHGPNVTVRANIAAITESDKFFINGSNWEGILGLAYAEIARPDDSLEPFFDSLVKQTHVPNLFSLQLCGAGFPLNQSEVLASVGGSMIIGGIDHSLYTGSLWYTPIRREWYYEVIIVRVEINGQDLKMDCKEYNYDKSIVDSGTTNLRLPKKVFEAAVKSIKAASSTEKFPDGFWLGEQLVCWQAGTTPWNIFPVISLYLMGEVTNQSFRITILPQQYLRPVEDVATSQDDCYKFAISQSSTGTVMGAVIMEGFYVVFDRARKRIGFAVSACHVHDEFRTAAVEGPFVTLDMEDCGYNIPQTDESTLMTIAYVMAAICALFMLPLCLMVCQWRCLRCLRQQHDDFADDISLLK
Chain of Recombinant CatD (P07339 65-412): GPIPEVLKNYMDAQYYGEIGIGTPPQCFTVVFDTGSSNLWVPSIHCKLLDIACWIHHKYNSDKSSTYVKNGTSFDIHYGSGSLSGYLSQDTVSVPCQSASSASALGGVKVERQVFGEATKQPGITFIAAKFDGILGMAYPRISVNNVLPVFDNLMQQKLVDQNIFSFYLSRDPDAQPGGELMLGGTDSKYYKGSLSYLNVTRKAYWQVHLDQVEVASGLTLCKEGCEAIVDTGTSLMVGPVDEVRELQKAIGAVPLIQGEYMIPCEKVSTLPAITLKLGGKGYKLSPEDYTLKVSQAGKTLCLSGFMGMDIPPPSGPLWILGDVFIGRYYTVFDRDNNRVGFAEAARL
Chain of human recombinant BACE2 (Q9Y5Z0 63-518): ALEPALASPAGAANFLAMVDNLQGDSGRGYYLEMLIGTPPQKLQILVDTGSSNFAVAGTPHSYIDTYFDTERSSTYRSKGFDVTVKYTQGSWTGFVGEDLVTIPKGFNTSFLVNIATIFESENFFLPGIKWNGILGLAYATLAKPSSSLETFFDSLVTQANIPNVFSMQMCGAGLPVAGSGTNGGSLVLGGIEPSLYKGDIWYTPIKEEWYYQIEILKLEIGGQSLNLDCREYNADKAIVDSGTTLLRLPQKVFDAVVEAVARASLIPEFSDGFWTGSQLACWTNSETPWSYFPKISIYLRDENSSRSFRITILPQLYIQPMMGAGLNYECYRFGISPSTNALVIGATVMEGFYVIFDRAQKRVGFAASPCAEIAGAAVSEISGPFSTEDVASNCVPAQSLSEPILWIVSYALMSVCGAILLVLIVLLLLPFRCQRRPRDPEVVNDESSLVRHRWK

Row | SMILES | IC50 (Recombinant CatD) [nM] | IC50 (human recombinant BACE1) [nM] | IC50 (human recombinant BACE2) [nM] | IC50 [1, 2] [µM] | IC50 ([1]; 24 h, read-out: BACE1 Cell IC50 (μM)) [µM]
1 | N#Cc1ccc(/C(F)=C/c2ccc(F)c([C@@]34COC[C@@H]3CSC(N)=N4)c2)nc1 [Example 106, 6-((Z)-2-(3-((4aR,7aR)-2-amino-4a,5,7,7a-tetrahydro-4H-furo[3,4-d][1,3]thiazin-7a-yl)-4-fluorophenyl)-1-fluorovinyl)nicotinonitrile] | 815000 | 502 | 6390 | 0.985 | –
2 | COc1cnc(/C(F)=C/c2ccc(F)c([C@]34CN(c5ncc(F)cn5)C[C@H]3CSC(N)=N4)c2)cn1 [Example 108, (4aR,7aS)-7a-(2-fluoro-5-((Z)-2-fluoro-2-(5-methoxypyrazin-2-yl)vinyl)phenyl)-6-(5-fluoropyrimidin-2-yl)-4,4a,5,6,7,7a-hexahydropyrrolo[3,4-d][1,3]thiazin-2-amine] | 14800 | 2.71 | 34 | 0.016 | –
3 | NC1=N[C@@]2(c3cc(/C=C(\F)c4cnc(OCC(F)(F)C(F)F)cn4)ccc3F)CN(c3ncc(F)cn3)C[C@H]2CS1 [Example 112, (4aR,7aS)-7a-(2-fluoro-5-((Z)-2-fluoro-2-(5-(2,2,3,3-tetrafluoropropoxy)pyrazin-2-yl)vinyl)phenyl)-6-(5-fluoropyrimidin-2-yl)-4,4a,5,6,7,7a-hexahydropyrrolo[3,4-d][1,3]thiazin-2-amine] | 1320 | 108 | 136 | – | 0.02
4 | N#Cc1ccc(/C(F)=C/c2ccc(F)c([C@]34COC[C@H]3CSC(N)=N4)c2)nc1 [Example 107, 6-((Z)-2-(3-((4aS,7aS)-2-amino-4a,5,7,7a-tetrahydro-4H-furo[3,4-d][1,3]thiazin-7a-yl)-4-fluorophenyl)-1-fluorovinyl)nicotinonitrile] | > 400000 | 11.7 | 279 | 0.041 | –
5 | NC1=N[C@]2(c3cc(/C=C(\F)c4ccc(Cl)cn4)ccc3F)COC[C@@H]2CS1 [Example 104, (4aR,7aR)-7a-(5-((Z)-2-(5-chloropyridin-2-yl)-2-fluorovinyl)-2-fluorophenyl)-4a,5,7,7a-tetrahydro-4H-furo[3,4-d][1,3]thiazin-2-amine] | 654000 | 804 | 7480 | 2.26 | –

Further lines, with some results ahead:

Row | IC50 (Recombinant CatD) [nM] | IC50 (human recombinant BACE1) [nM] | IC50 (human recombinant BACE2) [nM] | IC50 [1, 2] [µM] | SMILES | IC50 ([1]; 24 h, read-out: BACE1 Cell IC50 (μM)) [µM]
6 | 106000 | 4.3 | 22.3 | 0.0018 | N#Cc1ccc(/C(F)=C/c2ccc(F)c([C@]34CN(c5ncccn5)C[C@H]3CSC(N)=N4)c2)nc1 [Example 135, 6-((Z)-2-(3-((4aR,7aS)-2-amino-6-(pyrimidin-2-yl)-4,4a,5,6,7,7a-hexahydropyrrolo[3,4-d][1,3]thiazin-7a-yl)-4-fluorophenyl)-1-fluorovinyl)nicotinonitrile] | –
7 | 13200 | 0.286 | 2.79 | 0.00038 | CC#CCOc1cnc(/C(F)=C/c2ccc(F)c([C@]34CN(c5ncc(F)cn5)C[C@H]3CSC(N)=N4)c2)cn1 [Example 117, (4aR,7aS)-7a-(5-((Z)-2-(5-(but-2-yn-1-yloxy)pyrazin-2-yl)-2-fluorovinyl)-2-fluorophenyl)-6-(5-fluoropyrimidin-2-yl)-4,4a,5,6,7,7a-hexahydropyrrolo[3,4-d][1,3]thiazin-2-amine] | –
8 | 38700 | 8.96 | 30.6 | 0.00257 | COC[C@H](C)Oc1cnc(/C(F)=C/c2ccc(F)c([C@]34CN(c5ncc(F)cn5)C[C@H]3CSC(N)=N4)c2)cn1 [Example 114, (4aR,7aS)-7a-(2-fluoro-5-((Z)-2-fluoro-2-(5-(((S)-1-methoxypropan-2-yl)oxy)pyrazin-2-yl)vinyl)phenyl)-6-(5-fluoropyrimidin-2-yl)-4,4a,5,6,7,7a-hexahydropyrrolo[3,4-d][1,3]thiazin-2-amine] | –
